Experimental data: patent US20260355176A1 (NICOVENTURES TRADING LIMITED, priority 2019, published 2026)
Entries after “also recorded” stand apart in the source; their conditions may differ.

What was measured:
[1] = Nicotine and benzoic acid octanol-water partitioning in unbuffered water; assay type: physicochemical
Experimental: The mobile phase was brought to pH 2.5 with H3PO4. The flow rate of the mobile phase was 1 mL/min, and the injection volume was 10 μL.

[2] = Nicotine octanol-water partitioning with various ion pairing agents and quantities (benzoate, octanoate, decanoate); assay type: physicochemical; settings: pH 6.5, 1,000 ppm nicotine
Experimental: A pH probe was submerged in the resulting liquid and HCl (0.05 M) was added under stirring to bring the solution to pH 6.5. The flask weight was then brought up to 100 grams with RO water. […] Partitioning was performed by removing aliquots (10 mL) of each solution and placing into separate 20 ml scintillation vials. Octanol (10 ml) was added to each vial. The vials were then placed on a wrist action shaker for 20 minutes. Following agitation, the vials were allowed to separate for 30 min, and an aliquot (100 μl) of each octanol layer was removed and diluted with 900 μl octanol in 2 mL GC/MS vials.

Compound: O=C(O)c1ccccc1 [benzoic acid]
- concentration in octanol ([1]; 1000 ppm nicotine, 1 molar equivalent sodium benzoate, unbuffered water): 19.2 ppm
- benzoic acid molarity in octanol in terms of nicotine mass ([1]; calculated as ppm nicotine): 25.5 ppm

Compound: CCCCCCCCCC(=O)O [decanoic acid]
- octanol-water partitioning, in words [2]: prone to becoming soapy during the vigorous mixing; also recorded: partition into octanol to an extent less than that expected by theory

Compound: CN1CCCC1c1cccnc1 (centres unmarked) [nicotine, reference compound]
- % nicotine in octanol (FIG. 6) ([2]; 10 eq. octanoic acid): ~ 75%
- % nicotine in octanol (FIG. 6) ([2]; benzoic acid at same concentration (10 eq.)): ~ 52%
